Data published in patent US20110201603A1, “Novel Acylaminobenzamide Derivatives” (Bayer CropScience AG, priority 2008, published 2011).

Assays:
[1] = tested on: tobacco cutworm (Spodoptera litura) larvae; assay: Test against tobacco cutworm (Spodoptera litura) larvae, leaf dip; type: in vivo; conditions: active compound concentration of 100 ppm; third-instar larvae on sweet potato leaves; after 7 days
Experimental: (§1) Unless not mentioned otherwise, the test solutions were prepared as follows:
(§2) Containing as solvent: Dimethylformamide, 3 parts by weight; and as emulsifier: Polyoxyethylene alkyl phenyl ether, 1 part by weight
(§3) To prepare the test solution, 1 part by weight of an active compound is mixed with the above-mentioned amount of solvent containing the above-mentioned amount of emulsifier, and the mixture is diluted with water to the desired concentration.
The leaves of sweet potato were immersed in the test solution at the appropriate concentration, and the leaves were dried in air. The leaves were then placed in a petri dish having a diameter of 9 cm, and ten third-instar larvae of tobacco cutworm were released therein. The petri dish was placed in a temperature-controlled chamber at 25° C. After 2 days and 4 days sweet potato leaves were additionally added. After 7 days, the number of dead larvae was counted to calculate the insecticidal activity. An insecticidal activity of 100% means that all larvae were killed, whereas an insecticidal activity of 0% means that no larva was killed. In the current test, the results of two petri dishes for each partition were averaged.

[2] = tested on: cucurbit leaf beetle (Aulacophora femoralis); assay: Test against cucurbit leaf beetle (Aulacophora femoralis), leaf dip; type: in vivo; conditions: active compound concentration of 100 ppm; second-instar larvae on cucumber leaves; after 7 days
Experimental: as §1, §2, §3
Cucumber leaves were immersed in the test solution at the appropriate concentration, and the leaves were dried in air. The leaves were then placed in a plastic cup containing sterilized black soil, and five second-instar larvae of cucurbit leaf beetle were released therein. The plastic cup was placed in a temperature-controlled chamber at 25° C. After 7 days, the number of dead larvae was counted, and thus the insecticidal activity was calculated. An insecticidal activity of 100% means that all beetles were killed, whereas an insecticidal activity of 0% means that no beetle was killed.

SMILES | insecticidal activity [1] | insecticidal activity [2]
CCOC(c1cc(I)c(NC(=O)c2cccc(NC(=O)CCCl)c2)c(I)c1)(C(F)(F)F)C(F)(F)F [1-23] | 100% | –
Cc1cc(C(n2ccc(Br)n2)(C(F)(F)F)C(F)(F)F)cc(C)c1NC(=O)c1cccc(NC(=O)c2cccnc2Cl)c1 [2-76, N-[3-({4-[2-(3-bromo-1H-pyrazol-1-yl)-1,1,1,3,3,3-hexafluoropropan-2-yl]-2,6-dimethylphenyl}carbamoyl)phenyl]-2-chloropyridine-3-carboxamide] | 100% | –
CCc1cc(C(ON=Cc2ccc(C)cc2)(C(F)(F)F)C(F)(F)F)cc(C)c1NC(=O)c1cccc(NC(=O)c2cccnc2Cl)c1 [1-149] | 100% | –
Cc1cc(C(n2cnc(C(F)(F)F)c2)(C(F)(F)F)C(F)(F)F)cc(C)c1NC(=O)c1cccc(NC(=O)c2cccnc2Cl)c1 [2-142] | 100% | –
CCc1cc(C(Oc2ccc(Cl)cc2)(C(F)(F)F)C(F)(F)F)cc(CC)c1NC(=O)c1cccc(NC(=O)c2cccnc2Cl)c1 [1-176] | 100% | 100%
Cc1cc(C(n2ncnn2)(C(F)(F)F)C(F)(F)F)cc(C)c1NC(=O)c1cccc(NC(=O)c2cccnc2Cl)c1 [2-154] | 100% | –
CCc1cc(C(n2cc(Cl)cn2)(C(F)(F)F)C(F)(F)F)cc(C)c1NC(=O)c1cccc(NC(=O)c2c(F)cccc2F)c1 [2-40] | 100% | –
CCc1cc(C(OCC(F)(F)F)(C(F)(F)F)C(F)(F)F)cc(C)c1NC(=O)c1cccc(N)c1 [11-26] | 100% | –
Cc1cc(C(n2ccc(C(Cl)Cl)n2)(C(F)(F)F)C(F)(F)F)cc(C)c1NC(=O)c1cccc(NC(=O)c2cccnc2Cl)c1 [2-106] | 100% | –
CCc1cc(C(Oc2ccccc2)(C(F)(F)F)C(F)(F)F)cc(C)c1NC(=O)c1cccc(NC(=O)c2cccnc2Cl)c1 [1-105] | – | 100%
CCc1cc(C(Oc2ccc(Cl)nc2)(C(F)(F)F)C(F)(F)F)cc(C)c1NC(=O)c1cccc(NC(=O)c2cccnc2Cl)c1 [1-181] | 100% | –
CSCCOC(c1cc(I)c(NC(=O)c2cccc(NC(=O)c3cccnc3Cl)c2)c(I)c1)(C(F)(F)F)C(F)(F)F [1-104] | 100% | –
O=C(Nc1c(Br)cc(C(c2ccccc2)(n2ccc(C(F)(F)F)n2)C(F)(F)F)cc1Br)c1cccc(NC(=O)c2cccnc2Cl)c1 (single isomer, unassigned) [2-100] | – | 100%
CCCOC(c1cc(I)c(NC(=O)c2cccc(NC(=O)c3ccc(C)nc3Cl)c2)c(I)c1)(C(F)(F)F)C(F)(F)F [1-63] | 100% | –
Cc1cc(C(Oc2ccc(Cl)cc2)(C(F)(F)F)C(F)(F)F)ccc1NC(=O)c1cccc(NC(=O)c2cccnc2Cl)c1 [1-201] | 100% | –
Cc1cc(C(n2nc(C(F)(F)F)cc2C(F)(F)F)(C(F)(F)F)C(F)(F)F)cc(C)c1NC(=O)c1cccc(NC(=O)c2cccnc2F)c1 [2-125] | 100% | –
O=C(Nc1c(Br)cc(C(c2ccccc2)(n2ccc(C(F)(F)F)n2)C(F)(F)F)cc1Br)c1cccc(NC(=O)c2cccnc2Cl)c1 (single isomer, unassigned) [2-99] | 100% | –
CCc1cc(C(ON=Cc2ccccc2)(C(F)(F)F)C(F)(F)F)cc(C)c1NC(=O)c1cccc(NC(=O)c2cccnc2Cl)c1 [1-125] | 100% | –
Cc1cc(C(n2ccc(C(F)(F)F)n2)(C(F)(F)F)C(F)(F)F)cc(C)c1NC(=O)c1cccc(NC(=O)c2cccnc2F)c1 [2-98] | 100% | –
CCc1cc(C(Oc2cccc(C(F)(F)F)c2)(C(F)(F)F)C(F)(F)F)cc(C)c1NC(=O)c1cccc(NC(=O)c2cccnc2Cl)c1 [1-110] | 100% | –

SMILES | insecticidal activity [1] | insecticidal activity [2]
Cc1cc(C(n2cc(I)cn2)(C(F)(F)F)C(F)(F)F)cc(C)c1NC(=O)c1cccc(NC(=O)c2cccnc2Cl)c1 [2-95] | 100% | –
CCc1cc(C(n2cc(Cl)cn2)(C(F)(F)F)C(F)(F)F)cc(C)c1NC(=O)c1cccc(NC(=O)c2ccccc2F)c1 [2-30] | 100% | –
CCc1cc(C(n2cc(Cl)cn2)(C(F)(F)F)C(F)(F)F)cc(C)c1NC(=O)c1cccc(NC(=O)c2cccc(F)c2)c1 [2-35] | 100% | –
Cc1cc(C(n2ccc(C(F)(F)C(F)(F)F)n2)(C(F)(F)F)C(F)(F)F)cc(C)c1NC(=O)c1cccc(NC(=O)c2cccnc2Cl)c1 [2-107] | 100% | –
Cc1cc(C(Oc2ccc(C#N)cc2)(C(F)(F)F)C(F)(F)F)cc(C)c1NC(=O)c1cccc(NC(=O)c2cccnc2Cl)c1 [1-180] | 100% | –
CCc1cc(C(n2cc(Cl)cn2)(C(F)(F)F)C(F)(F)F)cc(C)c1NC(=O)c1cccc(NC(=O)c2ccc(F)cc2)c1 [2-36] | 100% | –
Cc1cc(C(n2cc(Br)c(Br)n2)(C(F)(F)F)C(F)(F)F)cc(C)c1NC(=O)c1cccc(NC(=O)c2cccnc2Cl)c1 [2-115] | 100% | –
Cc1cc(C(Oc2ccnc(C(F)(F)F)c2)(C(F)(F)F)C(F)(F)F)cc(C)c1NC(=O)c1cccc(NC(=O)c2cccnc2Cl)c1 [1-111] | 100% | –
CCc1cc(C(Oc2ccnc(C(F)(F)F)c2)(C(F)(F)F)C(F)(F)F)cc(C)c1NC(=O)c1cccc(NC(=O)c2cccnc2Cl)c1 [1-112] | 100% | –
CCc1cc(C(ON=Cc2ccc(OC)cc2)(C(F)(F)F)C(F)(F)F)cc(C)c1NC(=O)c1cccc(NC(=O)c2cccnc2Cl)c1 [1-150] | 100% | –
Cc1cc(C(n2cc(I)c(C(F)(F)F)n2)(C(F)(F)F)C(F)(F)F)cc(C)c1NC(=O)c1cccc(NC(=O)c2cccnc2Cl)c1 [2-119] | – | 100%
Cc1cc(C(n2cc(Cl)c(C(F)(F)F)n2)(C(F)(F)F)C(F)(F)F)cc(C)c1NC(=O)c1cccc(NC(=O)c2cccnc2Cl)c1 [2-118] | 100% | –
CCc1cc(C(n2cncn2)(C(F)(F)F)C(F)(F)F)cc(C)c1NC(=O)c1cccc(NC(=O)c2cccnc2Cl)c1 [2-149] | 100% | –
Cc1cc(C(n2ccc(Cl)n2)(C(F)(F)F)C(F)(F)F)cc(C)c1NC(=O)c1cccc(NC(=O)c2cccnc2Cl)c1 [2-7] | – | 100%
CCc1cc(C(N2CC=CC2)(C(F)(F)F)C(F)(F)F)cc(C)c1NC(=O)c1cccc(NC(=O)c2cccnc2Cl)c1 [2-170] | 100% | –
CCc1cc(C(n2cc(Cl)cn2)(C(F)(F)F)C(F)(F)F)cc(C)c1NC(=O)c1cccc(NC(=O)c2ccc(F)cc2F)c1 [2-38] | 100% | –
CCc1cc(C(n2cc(Cl)cn2)(C(F)(F)F)C(F)(F)F)cc(C)c1NC(=O)c1cccc(NC(=O)c2cccc(F)c2F)c1 [2-37] | 100% | –
Cc1cc(C(Oc2cccc(C(F)(F)F)c2)(C(F)(F)F)C(F)(F)F)cc(C)c1NC(=O)c1cccc(NC(=O)c2cccnc2Cl)c1 [1-167] | 100% | –
Cc1cc(C(n2nc(C(F)(F)F)cc2C(F)(F)F)C(F)(F)F)cc(C)c1NC(=O)c1cccc(NC(=O)c2cccnc2Cl)c1 (centres unmarked) [2-123, N-{3-[(4-{1-[3,5-bis(trifluoromethyl)-1H-pyrazol-1-yl)-2,2,2-trifluoroethyl}-2,6-dimethylphenyl)carbamoyl]phenyl}-2-chloropyridine-3-carboxamide] | 100% | –
CCc1cc(C(n2cc(Cl)cn2)(C(F)(F)F)C(F)(F)F)cc(C)c1NC(=O)c1cccc(NC(=O)c2cc(F)ccc2F)c1 [2-39] | 100% | –
